Test results: patent US7638535B2, “4-(aminomethyl)-piperidine benzamides as 5HT4-antagonists” (Janssen Pharmaceutica N.V., priority 2003, dated 2009)

Key:
h5-HT4b = biological target: T1, h5-HT4b (Homo sapiens, UniProt Q13639); test: 5HT4 antagonism: [3H]GR113808 binding to membranes of h5-HT4b-HEK 293 clone 9 cells; conditions: displacement of [3H]GR113808 0.1 nM, h5-HT4b-HEK 293 membranes, 30 min at 25° C.; read-out: pIC50 (5HT4 antagonistic data) (converted)
T1 construct: expressed in transfected cells; host or cells: HEK 293 (clone 9), membrane preparation
In short: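 Membranes from h5-HT4b-HEK 293 clone 9 cells were incubated with [3H]GR113808 (0.1 nM as added) in 50 mM HEPES-NaOH pH 7.4 for 30 min at 25 °C. Non-specific binding was defined with a 5-HT4 agonist. Bound radioligand was separated by filtration over PEI-soaked GF/B filters.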

[1] = Metabolic stability: % metabolism after 60 minutes incubation with active liver microsomes; assay type: in vitro ADME; conditions: compound 5 μM, microsomes 1 mg/ml, NADPH-generating system, 60 minutes at 37 degrees Celsius; for % metabolised compound (comparative structures of WO-00/37461): compound numbers of WO-00/37461
Experimental: Sub-cellular tissue preparations were made according to Gorrod et al. (Xenobiotica 5:453-462, 1975) by centrifugal separation after mechanical homogenization of tissue. Liver tissue was rinsed in ice-cold 0.1 M Tris-HCl (pH 7.4) buffer to wash excess blood. Tissue was then blotted dry, weighed and chopped coarsely using surgical scissors. The tissue pieces were homogenized in 3 volumes of ice-cold 0.1 M phosphate buffer (pH 7.4).
Tissue homogenates were centrifuged at 9000×g for 20 minutes at 4° C. The resulting supernatant was stored at −80° C. and is designated ‘S9’.
The S9 fraction can be further centrifuged at 100.000×g for 60 minutes (4° C.). The resulting supernatant was carefully aspirated, aliquoted and designated ‘cytosol’. The pellet was re-suspended in 0.1 M phosphate buffer (pH 7.4) in a final volume of 1 ml per 0.5 g original tissue weight and designated ‘microsomes’.
All sub-cellular fractions were aliquoted, immediately frozen in liquid nitrogen and stored at −80° C. until use.
For the samples to be tested, the incubation mixture contained PBS (0.1M), compound (5 μM), microsomes (1 mg/ml) and a NADPH-generating system (0.8 mM glucose-6-phosphate, 0.8 mM magnesium chloride and 0.8 Units of glucose-6-phosphate dehydrogenase). Control samples contained the same material but the microsomes were replaced by heat inactivated (10 minutes at 95 degrees Celsius) microsomes. Recovery of the compounds in the control samples was always 100%.
The mixtures were preincubated for 5 minutes at 37 degrees Celsius. The reaction was started at time point zero (t=0) by addition of 0.8 mM NADP and the samples were incubated for 60 minutes (t=60). The reaction was terminated by the addition of 2 volumes of DMSO. Then the samples were centrifuged for 10 minutes at 900×g and the supernatants were stored at room temperature for no longer as 24 hours before analysis. All incubations were performed in duplo. Analysis of the supernatants was performed with LC-MS analysis. Elution of the samples was performed on a Xterra MS C18 (50×4.6 mm, 5 μm, Waters, US). An Alliance 2790 (Supplier: Waters, US) HPLC system was used. Elution was with buffer A (25 mM ammoniumacetate (pH 5.2) in H2O/acetonitrile (95/5)), solvent B being acetonitrile and solvent C methanol at a flow rate of 2.4 ml/min. The gradient employed was increasing the organic phase concentration from 0% over 50% B and 50% C in 5 min up to 100% B in 1 minute in a linear fashion and organic phase concentration was kept stationary for an additional 1.5 minutes. Total injection volume of the samples was 25 μl.
A Quatro triple quadrupole mass spectrometer fitted with and ESP source was used as detector. The source and the desolvation temperature were set at 120 and 350° C. respectively and nitrogen was used as nebuliser and drying gas. Data were acquired in positive scan mode (single ion reaction). Cone voltage was set at 10 V and the dwell time was 1 second.
Metabolic stability was expressed as % metabolism of the compound after 60 minutes (equation given as example) of incubation in the presence of active microsomes (E(act))

T1 sequence (Q13639 whole entry): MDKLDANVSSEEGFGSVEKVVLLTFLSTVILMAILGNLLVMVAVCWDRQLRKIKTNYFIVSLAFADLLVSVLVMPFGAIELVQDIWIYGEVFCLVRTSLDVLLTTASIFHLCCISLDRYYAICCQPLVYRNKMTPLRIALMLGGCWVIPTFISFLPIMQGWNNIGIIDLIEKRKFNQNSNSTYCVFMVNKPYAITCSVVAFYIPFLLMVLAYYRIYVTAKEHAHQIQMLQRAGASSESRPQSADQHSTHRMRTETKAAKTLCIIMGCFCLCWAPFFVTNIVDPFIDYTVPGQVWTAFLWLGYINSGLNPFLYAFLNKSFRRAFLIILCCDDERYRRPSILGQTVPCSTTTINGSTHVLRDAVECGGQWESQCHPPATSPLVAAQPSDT

| melting point [°C] | IC50 (h5-HT4b) [nM] | % metabolised compound (compounds of present invention) [1] [%] | % metabolised compound (comparative structures of WO-00/37461) [1] [%] | SMILES |
| --- | --- | --- | --- | --- |
| – | 3.09 | 9 | – | COCCCN1CC[C@@H](CNC(=O)c2cc(C)cc3c2OCCCO3)[C@H](O)C1 (single isomer, unassigned) [compound 162] |
| – | – | – | 30 | COCCCN1CC[C@@H](CNC(=O)c2cc(Cl)cc3c2OCCO3)[C@H](O)C1 [WO-00/37461 Co. No. 67, reference compound] |
| – | – | – | 68 | CCCCN1CC[C@@H](CNC(=O)c2cc(Cl)cc3c2OCCCO3)[C@H](O)C1 [WO-00/37461 Co. No. 119, reference compound] |
| – | – | – | 30 | CC(=O)CCCN1CC[C@@H](CNC(=O)c2cc(Cl)cc3c2OCCCO3)[C@H](O)C1 [WO-00/37461 Co. No. 121, reference compound] |
| – | – | – | 79 | O=C(NC[C@@H]1CCN(CC2CCCO2)C[C@H]1O)c1cc(Cl)cc2c1OCCCO2 (stereo partly shown) [WO-00/37461 Co. No. 122, reference compound] |
| – | – | – | 49.5 | CC1(CCCN2CC[C@@H](CNC(=O)c3cc(Cl)cc4c3OCCCO4)[C@H](O)C2)OCCO1 [WO-00/37461 Co. No. 124, reference compound] |
| – | – | – | 26 | O=C(NC[C@@H]1CCN(CCOCCO)C[C@H]1O)c1cc(Cl)cc2c1OCCCO2 [WO-00/37461 Co. No. 128, reference compound] |
| – | – | – | 23 | O=C(NC[C@@H]1CCN(CCCCO)C[C@H]1O)c1cc(Cl)cc2c1OCCCO2 [WO-00/37461 Co. No. 160, reference compound] |
| 106 to 108 | 19.1 | – | – | CNc1cc(C(=O)NC[C@@H]2CCN(CCCOC)C[C@H]2O)c2c(c1Cl)OCCO2 [compound 26] |
| – | 16.2 | 6 | – | COCc1cc2c(c(C(=O)NC[C@@H]3CCN(CC4CCCO4)C[C@H]3O)c1)OCCCO2 (stereo partly shown) [compound 125] |
| – | 10.2 | 5 | – | COCCCN1CC[C@@H](CNC(=O)c2cc(C#N)cc3c2OCCCO3)[C@H](O)C1 [compound 158] |
| – | 5.01 | 22 | – | CCCCN1CC[C@@H](CNC(=O)c2cc(C#N)cc3c2OCCCO3)[C@H](O)C1 [compound 159] |
| – | 15.8 | 1 | – | N#Cc1cc2c(c(C(=O)NC[C@@H]3CCN(CCCO)C[C@H]3O)c1)OCCCO2 [compound 165] |
| – | 2 | 4 | – | Cc1cc2c(c(C(=O)NC[C@@H]3CCN(CCCO)C[C@H]3O)c1)OCCCO2 [compound 168] |
| – | 108 | 4 | – | CCNc1cc2c(c(C(=O)NC[C@@H]3CCN(CCCOC)C[C@H]3O)c1)OCCCO2 [compound 177] |
| – | 3.47 | 10 | – | CCCCN1CC[C@@H](CNC(=O)c2cc(CC#N)cc3c2OCCCO3)[C@H](O)C1 [compound 183] |
| – | 20 | 12 | – | COCCCCN1CC[C@@H](CNC(=O)c2cc(CC#N)cc3c2OCCCO3)[C@H](O)C1 [compound 184] |
| 136 | – | – | – | Cc1cc2c(c(C(=O)NC[C@@H]3CCN(CCCC(N)=O)C[C@H]3O)c1)OCCCO2 [compound 197] |
| – | 4.37 | 8 | – | COCCCN1CC[C@@H](CNC(=O)c2cc(C#N)cc3c2OCCCO3)[C@H](O)C1 [compound 202] |
| – | 2.95 | 13 | – | Cc1cc2c(c(C(=O)NC[C@@H]3CCN(CCOCCO)C[C@H]3O)c1)OCCCO2 [compound 211] |
| – | 0.759 | 14 | – | Cc1cc2c(c(C(=O)NC[C@@H]3CCN(CCCCO)C[C@H]3O)c1)OCCCO2 [compound 225] |
| – | 0.55 | 12 | – | CC(=O)CCCN1CC[C@@H](CNC(=O)c2cc(C)cc3c2OCCCO3)[C@H](O)C1 [compound 229] |
| – | 12.6 | 7 | – | N#CCCCN1CC[C@@H](CNC(=O)c2cc(C#N)cc3c2OCCO3)[C@H](O)C1 [compound 246] |
| – | 3.98 | 12 | – | COCCCN1CC[C@@H](CNC(=O)c2cc(C#N)cc3c2OCCO3)[C@H](O)C1 [compound 247] |

Further lines, the compound ahead of its results:

| SMILES | melting point [°C] | IC50 (h5-HT4b) [nM] | % metabolised compound (compounds of present invention) [1] [%] | % metabolised compound (comparative structures of WO-00/37461) [1] [%] |
| --- | --- | --- | --- | --- |
| CNCCCN1CC[C@@H](CNC(=O)c2cc(NC)cc3c2OCCCO3)[C@H](O)C1 (hydrate or solvate) [compound 81] | > 130 | – | – | – |
| O=C(NC[C@@H]1CCN(CCCCO)C[C@H]1O)c1cc(Cl)cc2c1OCCO2 [WO-00/37461 Co. No. 68, reference compound] | – | – | – | 10 |
| N#CCCCN1CC[C@@H](CNC(=O)c2cc(Cl)cc3c2OCCO3)[C@H](O)C1 [WO-00/37461 Co. No. 74, reference compound] | – | – | – | 50.5 |
| COCCCN1CC[C@@H](CNC(=O)c2cc(Cl)cc3c2OCCCO3)[C@H](O)C1 [WO-00/37461 Co. No. 120, reference compound] | – | – | – | 25 |
| O=C(NC[C@@H]1CCN(CCC2OCCO2)C[C@H]1O)c1cc(Cl)cc2c1OCCCO2 [WO-00/37461 Co. No. 143, reference compound] | – | – | – | 63 |
| O=C(NC[C@@H]1CCN(CCCO)C[C@H]1O)c1cc(Cl)cc2c1OCCCO2 [WO-00/37461 Co. No. 144, reference compound] | – | – | – | 11 |
| COCCCCN1CC[C@@H](CNC(=O)c2cc(N)cc3c2OCCCO3)[C@H](O)C1 [compound 1] | 174 | 49 | – | – |
| CNc1cc2c(c(C(=O)NC[C@@H]3CCN(CCCO)C[C@H]3O)c1)OCCCO2 [compound 2] | 150 | 525 | – | – |
| CCCCN1CC[C@@H](CNC(=O)c2cc(N)c(Cl)c3c2OCCO3)[C@H](O)C1 [compound 11] | > 110 | 5.75 | – | – |
| CNc1cc2c(c(C(=O)NC[C@@H]3CCN(CCCC(=O)O)C[C@H]3O)c1)OCCO2 [compound 16] | 240 | 617 | – | – |
| CNc1cc2c(c(C(=O)NC[C@@H]3CCN(CCOC)C[C@H]3O)c1)OCCCO2 [compound 33] | 135 | 186 | – | – |
| COCCCN1CC[C@@H](CNC(=O)c2cc(OC)cc3c2OCCCO3)[C@H](O)C1 [compound 87] | – | 12.9 | 4 | – |
| Cc1cc2c(c(C(=O)NC[C@@H]3CCN(CCC4OCCO4)C[C@H]3O)c1)OCCCO2 [compound 163] | – | 2.29 | 11 | – |
| COc1cc2c(c(C(=O)NC[C@@H]3CCN(CCCO)C[C@H]3O)c1)OCCCO2 [compound 185] | – | 19.5 | 3 | – |
| Cc1cc2c(c(C(=O)NC[C@@H]3CCN(CC4CCCO4)C[C@H]3O)c1)OCCCO2 (stereo partly shown) [compound 186] | – | 5.01 | 0 | – |
| COc1cc2c(c(C(=O)NC[C@@H]3CCN(CCC4OCCO4)C[C@H]3O)c1)OCCCO2 [compound 187] | – | 11.5 | 18 | – |
| Cc1cc2c(c(C(=O)NC[C@@H]3CCN(CCCC4(C)OCCO4)C[C@H]3O)c1)OCCCO2 [compound 227] | – | 0.501 | 24 | – |
| Cc1cc2c(c(C(=O)NC[C@@H]3CCN(CCCCO)C[C@H]3O)c1)OCCO2 [compound 228] | – | 0.398 | 6 | – |
